System: full-length IRE1α in INS-1 rat insulinoma cells
Experiment: XBP1 mRNA splicing in INS-1 cells
Type: cell-based
Details: absence of ER stress; for spliced cellular XBP1 mRNA levels: 3 and 10 μM, 2 hours

| Compound | spliced cellular XBP1 mRNA levels | spliced XBP1 mRNA level compared with 0.5 μg/mL tunicamycin |
| --- | --- | --- |
| O=C(Nc1c[nH]nc1-c1nc2ccc(CN3CCOCC3)cc2[nH]1)NC1CC1 [AT9283] | increase in spliced cellular XBP1 mRNA levels | equal or greater level |
| COc1cc(N2CCC(N3CCN(C)CC3)CC2)ccc1Nc1ncc(Cl)c(Nc2ccccc2S(=O)(=O)C(C)C)n1 [TAE684] | increase in spliced cellular XBP1 mRNA levels |  |
| COc1cc(N2CCC(N3CCN(C)CC3)CC2)ccc1Nc1ncc(Cl)c(Nc2ccccc2P(C)(C)=O)n1 [AP26113] | increase in spliced cellular XBP1 mRNA levels | equal or greater level |
| NC(=O)Nc1cc(-c2cccc(F)c2)sc1C(=O)N[C@H]1CCCNC1 [AZD7762] | increase in spliced cellular XBP1 mRNA levels |  |

From paper PMC4992410 (ACS chemical biology, 2016)
